We go through twelve compounds from ChEMBL document CHEMBL1201862, “PubChem BioAssay data set” (2004).

Test in all cases: DTP human tumour cell line panel, 48 h
Test [1] has as its system EKVX.
Test [2] concerns SF-295.
The test system of test [3] is K562.
The test system of test [4] is SK-MEL-5.
Test [5] has as its system HCC 2998.
The subject of test [6] is SF-539.
In test [7] the test system is HL-60.
Test [8] has as its system SK-MEL-2.
The test system of test [9] is OVCAR-8.
Test [10] has as its system SN12C.
For test [11], the system named is HCT-116.
Test [12] deals with ACHN.
The test system of test [13] is HT-29.
Test [14] has as its system A549.
For test [15], the system named is UACC-62.
Test [16] has as its system SNB-75.
Test [17] has as its system SK-OV-3.
For test [18], the system named is HOP-62.

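Tested at 5 concentrations; 48 h exposure; 96-well plates; endpoints linearly interpolated, else capped at highest concentration. Here, GI50 denotes the concentration required for 50% inhibition of growth.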 Activity calls are given as the source filed them. Rule as the data show it: active = GI50 up to about 1.1 µM and inactive = higher. Bounds are passed on as bounds.

As to `Cc1cc(Cl)ccc1NC(=O)CC1SC(NC(=O)c2ccccc2Cl)=NC1=O` (stereo not given), the GI50 (as a rule, the concentration that inhibits growth by half) in [1] was > 100 µM (inactive); in test [2], > 100 µM (inactive); in test [3], 17 µM (inactive); in test [4], 30.8 µM (inactive); in test [5], 59.4 µM (inactive); in test [6], 19.2 µM (inactive). In addition, the GI50 in test [7] was 2.19 µM (inactive); in test [8], 26.7 µM (inactive); in test [9] it was > 100 µM (inactive); in [10], 17.7 µM (inactive); in test [11], 17.9 µM (inactive); in test [12], 16.9 µM (inactive). Besides, the GI50 was 21.5 µM (inactive) in test [13], 81.7 µM (inactive) in test [14], 27.1 µM (inactive) in test [15] and 19.2 µM (inactive) in test [16].

Regarding `COC(=O)C(Cc1cc(OC)c(OC)c(OC)c1)C(=O)OC`, the GI50 in test [17], in test [1], in [2], in test [3], in test [4] and in test [5] was > 320 µM (inactive) throughout. Moreover, the GI50 in [7], in [8], in test [9], in test [10], in [12] and in test [18] was > 320 µM (inactive) each time. Moreover, the GI50 in [13], in test [14] and in test [15] was > 320 µM (inactive) in each case.

Consider `COc1cccc(NC(=O)/C(CC(=O)CC(c2ccccc2)c2c(O)c3ccccc3oc2=O)=N\NC(C)(C)C)c1OC` (stereo not given), for which the GI50 in [17] was > 100 µM (inactive); in test [1] it was 43.4 µM (inactive); in test [2], > 100 µM (inactive); in test [3], 44.9 µM (inactive); in test [4], > 100 µM (inactive); in test [5] it was 40.9 µM (inactive). In addition, the GI50 in test [6] was 34.5 µM (inactive); in [7] it was 22.5 µM (inactive); in test [8] it was > 100 µM (inactive); in [9] it was > 100 µM (inactive); in [11], 69 µM (inactive); in [12], 34.4 µM (inactive). Also, the GI50 in test [18] is 86.1 µM (inactive); in test [14], 87.7 µM (inactive); in [15] it was 33.3 µM (inactive); in test [16] it was 27.7 µM (inactive).

On to `O=C(N/C(=C\c1ccc(/C=C(\NC(=O)c2ccccc2)c2nc3cc([N+](=O)[O-])ccc3[nH]2)cc1)c1nc2cc([N+](=O)[O-])ccc2[nH]1)c1ccccc1`, for which the GI50 is > 100 µM (inactive) in test [17]; 32.9 µM (inactive) in test [1]; 43.1 µM (inactive) in [2]; 18.3 µM (inactive) in test [3]; 22.2 µM (inactive) in test [4]; 27.1 µM (inactive) in [5]. In addition, the GI50 in test [6] was 80.4 µM (inactive); in test [8], 14.9 µM (inactive); in [9], 34.9 µM (inactive); in [10], 71.3 µM (inactive); in [11] it was 28.1 µM (inactive); in test [12] it was 23.2 µM (inactive). Also, the GI50 in test [18] was > 100 µM (inactive); in test [13] it was 30.3 µM (inactive); in test [14], 31 µM (inactive); in [15], 15.4 µM (inactive); in [16], 68.5 µM (inactive).

`O=C1CCC2(c3ccccc3)Nc3ccc(Cl)cc3N12` (stereo not given): the GI50 in [17] is > 100 µM (inactive); in test [1], > 100 µM (inactive); in test [2], > 100 µM (inactive); in test [3], 77.8 µM (inactive); in test [4], > 100 µM (inactive); in [5], > 100 µM (inactive). The GI50 in test [6], in test [7], in [8], in [9], in test [10] and in [12] was > 100 µM (inactive) each time. The GI50 was > 100 µM (inactive) in test [18]; > 100 µM (inactive) in test [13]; > 100 µM (inactive) in test [14]; > 100 µM (inactive) in [15]; 37.7 µM (inactive) in test [16].

As for `Cc1ccc(NC(=O)CSc2nnc(Cc3ccccc3)o2)c(C)c1`, the GI50 in test [17], in test [1], in test [2], in test [3], in [4] and in [7] was > 100 µM (inactive) in each case. Besides, the GI50 in [8], in [9], in test [10], in test [11], in test [12] and in [18] was > 100 µM (inactive) in each case. Further, the GI50 in [13], in test [14], in [15] and in test [16] was > 100 µM (inactive) each time.

With `Cc1ccc(NCCO)cc1`, the GI50 is > 100 µM (inactive) in test [17]; > 100 µM (inactive) in test [1]; > 100 µM (inactive) in test [2]; 55 µM (inactive) in [3]; > 100 µM (inactive) in test [4]; > 100 µM (inactive) in test [6]. In addition, the GI50 in [7], in test [8], in test [9], in [10], in test [11] and in test [12] was > 100 µM (inactive) in each case. Also, the GI50 in [18], in [13], in test [14], in test [15] and in [16] was > 100 µM (inactive) in each case.

On to `c1ccc(P(=Nc2ccccc2N=P(c2ccccc2)(c2ccccc2)c2ccccc2)(c2ccccc2)c2ccccc2)cc1`, for which the 50% growth inhibitory concentration (GI50) in test [17] is 0.327 µM (active); in test [1] it was 1.21 µM (inactive); in test [2] it was 1.11 µM (active); in test [3] it was 1.09 µM (active); in test [4] it was 0.401 µM (active); in test [5], 0.942 µM (active). In addition, the GI50 is 1.16 µM (inactive) in test [6]; 1.08 µM (active) in test [7]; 0.364 µM (active) in test [9]; 0.293 µM (active) in test [10]; 0.593 µM (active) in [11]; 0.869 µM (active) in test [12]. Moreover, the 50% growth inhibitory concentration (GI50) is 0.558 µM (active) in test [18]; 1.3 µM (inactive) in test [13]; 0.305 µM (active) in test [14]; 0.562 µM (active) in [15]; 0.371 µM (active) in test [16].

Consider `COC(=O)c1cc(Cl)ccc1NC(=O)c1ccc([N+](=O)[O-])cc1`, for which the GI50 in test [17] is 19.7 µM (inactive); in [1], 31.8 µM (inactive); in [2], 2.42 µM (inactive); in test [3], 26.9 µM (inactive); in test [4] it was 47.5 µM (inactive); in test [5], 29.2 µM (inactive). In addition, the GI50 in [6] was 20.4 µM (inactive); in test [7], 27.4 µM (inactive); in test [8] it was 49 µM (inactive); in [9], 15.9 µM (inactive); in test [11], 4.78 µM (inactive); in test [12], 5.97 µM (inactive). The GI50 in test [18] was 15.2 µM (inactive); in test [13], 14.8 µM (inactive); in [14] it was 19.6 µM (inactive); in [15] it was 24.2 µM (inactive); in test [16] it was 6.73 µM (inactive).

As for `Cc1c(C(=O)/C=C/c2ccccc2[N+](=O)[O-])[n+]([O-])c2ccccc2[n+]1[O-]`, the GI50 in [17] is 17.9 µM (inactive); in test [1] it was 14.4 µM (inactive); in test [2], 7.5 µM (inactive); in test [3] it was 3.39 µM (inactive); in test [4], 12 µM (inactive); in [6], 3.78 µM (inactive). The GI50 in test [7] was 1.58 µM (inactive); in test [8], 11.3 µM (inactive); in test [9], 3.9 µM (inactive); in test [10], 6 µM (inactive); in test [11] it was 3.96 µM (inactive); in [12], 10.6 µM (inactive). For the same compound, the GI50 in test [18] is 18.2 µM (inactive); in [13], 8.57 µM (inactive); in test [14], 12.5 µM (inactive); in [16], 13.2 µM (inactive).

Consider `O=C(Cc1nc2ccc([N+](=O)[O-])cc2nc1O)C(=O)Nc1ccccc1[N+](=O)[O-]`, for which the GI50 in [17], in test [1], in [2], in [3], in test [4] and in [5] was > 100 µM (inactive) throughout. Also, the GI50 was > 100 µM (inactive) in test [6]; > 100 µM (inactive) in [7]; > 100 µM (inactive) in test [8]; 95.7 µM (inactive) in [11]; > 100 µM (inactive) in test [12]; > 100 µM (inactive) in [13]. Also, the GI50 in test [14], in [15] and in test [16] was > 100 µM (inactive) in each case.

For the compound `Nc1nc[n+](Cc2ccccc2CCO)c2[nH]cnc12`, the GI50 in [17], in test [1], in test [2], in [3], in [4] and in test [6] was > 100 µM (inactive) throughout. Further, the GI50 in test [7], in test [8], in test [9], in test [10], in [12] and in test [18] was > 100 µM (inactive) each time. Besides, the GI50 in test [13], in test [14], in test [15] and in test [16] was > 100 µM (inactive) in each case.
